The subject of this assay is subject 3. Description: Skin blood microcirculation (SKBF) response to taste stimuli, PCA sensory space (ESRP). The assay is classed as in vivo, human. Particulars: concentration 4. The text has this:
A Periflux PF 5010 (Perimed AB, Sweden) system was chosen, which enables non-invasive monitoring of blood perfusion in the capillaries, arterioles and venules.
The unit of blood perfusion is arbitrary and corresponds to the product of the mean rate of displacement of the red blood cells by their concentration. The system Periflux PF 5010 has a 780 nm, 1 mm diameter laser beam without thermal effect. An optical fiber probe PR407 is used. The low-energy laser beam is transmitted by the probe to the tissue. A portion of the light reflects off the static structures and another portion of the light reflects off the moving blood cells. When the light reflects off a moving cell, the wavelength is modified, which corresponds to the Doppler effect. The scattered light collected by the optical fiber is used to calculate the perfusion value. The measurement is expressed in perfusion units (PU). Recording was carried out on the pad of the index finger of the non-dominant hand, due to the high level of vascularization of this zone. The perfusion signals were recorded by an 8-channel PowerLab PL35088/35 acquisition system; the data were collected at a frequency of 1 kHz and analyzed by the LabChart® software (AD instruments Ltd, United Kingdom).
. Then, the peak was analyzed manually by selecting the whole of the peak and analyzing it with the LabChart® software (FIG. 1).
Several shape parameters were extracted from the signal (i.e. amplitude, duration, gradient). […]
The SKBF responses were analyzed individually by one-way ANOVA (product effect), the subjects having their own “preferential channel” (Lacey, J. I., Bateman, D. E. & VanLEHN, R., 1953, Autonomic response specificity: An experimental study. Psychosomatic Medicine, 15, 8-21). […]

`[Cl-].[Na+]` [NaCl, sodium chloride]: the “SKBF disturbance (signal width, area of the peak; ANOVA)” value is “significantly stronger disturbance than the others”.
To `O=C(O)CC(O)(CC(=O)O)C(=O)O` [Citric acid, citric acid] belongs “significantly stronger disturbance than the others”.

(Values after patent US20180188224A1, “METHOD FOR CONSTRUCTING A SENSORY SPACE” (CENTRE SCIENTIFIQUE ET TECHNIQUE DU BATIMENT (CSTB), priority 2015, published 2018).)
